# Assay results from patent US10813920B2, “Drug for treating corneal endothelium by promoting cell proliferation or inhibiting cell damage” (THE DOSHISHA, priority 2013, dated 2020).
# Structures can show the parent of a compound that is named as a salt. Residues, ends and D or L forms follow the SMILES beside them. *: point of attachment. Cbz = O=C(OCc1ccccc1)*; CH2F = FC*
# Columns and labels:
# [1] = water; hydrochloride salt; cited from earlier work
# [2] = test system: cultured monkey corneal endothelial cells; assay: p38 MAPK activation induces apoptosis: Western blot in cultured monkey corneal endothelial cells; assay type: cell-based; conditions: Western blot after 9 hours
# Procedure: 1×10^5 cultured monkey corneal endothelial cells were seeded on a 12-well plate coated with an FNC Coating Mix and cultured for about 5 days until reaching confluence under the condition of 5% CO2 at 37° C. The medium used was Dulbecco's Modified Eagle Medium (Gibco, 12320-032), 10% FBS, 1% Penicillin-Streptomycin (nacalai tesque, 26252-94).
# As acclimation treatment, Z-VAD (OMe)-FMK (Wako Pure Chemical Industries, Ltd. 269-02071) was then added at a concentration of 10 μM and the cells were incubated for 16 hours under the condition of 5% CO2 at 37° C. For the Control group and anisomysin group, a solvent of a reagent Dimethyl Sulfoxide (DMSO) (Dimethyl Sulfoxide, Sterile-filtered; nacalai tesque, 13408-64) was added. The medium used was Gibco DMEM, 1% P/S. The cellular supernatant was then removed, and anisomysin (Wako Pure Chemical Industries Ltd., 017-16861) was added to the anisomysin group and the anisomysin+Z-VAD-FMK group at a concentration of 10 μM. 10 μM of Z-VAD was added with anisomysin to the anisomysin+Z-VAD-FMK group. DMSO was added to the groups to which Z-VAD-FMK was not added. The cells were then cultured for 9 hours. The cellular form was observed under a phase difference microscope. A picture was taken after 9 hours.
# After 9 hours, cell proteins were collected. The amount of protein expression was compared by Western blot. Anti-caspase 3 antibodies (cell signaling, 9662S), anti-p38 MAPK antibodies (cell signaling, #9212), and anti-pp38 MAPK antibodies (cell signaling, #4631S) were used as the antibodies. Further, anti-GAPDH antibodies (MBL, 3H12) were used as the internal standard.
structure (smiles),measurement,setting,value
"C[S+]([O-])c1ccc(-c2nc(-c3ccncc3)c(-c3ccc(F)cc3)[nH]2)cc1 (stereo not shown) [SB203580 hydrochloride, 4-(4-fluorophenyl)-2-(4-methylsulfinylphenyl)-5-(4-pyridyl)-1H-imidazole]",water solubility,[1],water-soluble
COC(=O)C[C@H](NC(=O)[C@H](C)NC(=O)[C@@H](NC(=O)OCc1ccccc1)C(C)C)C(=O)CF [Z-VAD-FMK] (Cbz-Val-Ala-Asp(OMe)-CH2F),Caspase 3 activation induced by anisomycin,[2]; 10 μM Z-VAD-FMK with 10 μM anisomycin,suppressed
"COc1ccc(C[C@H]2NC[C@H](O)[C@@H]2OC(C)=O)cc1 [anisomysin, (2R,3R,4S)-2-[(4-methoxyphenyl)methyl]-3,4-pyrrolidinediol-3-acetate]",Phosphorylation of p38,[2]; 10 μM,observed
same,activation due to cleavage of caspase 3,[2]; 10 μM,observed
